From patent US20250034139A1, “AMINE COMPOUNDS HAVING ANTI-INFLAMMATORY, ANTIFUNGAL, ANTIPARASITIC, AND ANTICANCER ACTIVITY” (PHARMA CINQ, LLC, priority 2013, published 2025)

How the values were obtained:
[1] = tested on: 4T1 mouse mammary breast cancer cells; assay: Example O: syngeneic 4T1 breast cancer growth in Balb/C mice; format: in vivo; conditions: 4T1 in female Balb/C mice; for Final Tumor Volume: 120 μmol/kg/day oral gavage, day 2 to day 30; for Δ BW % / Final Body Weight / Initial Body Weight: 120 μmol/kg/day oral; for Δ BW %: final vs initial body weight; for Final Body Weight: in g (unit assumed); for Initial Body Weight: initial (baseline)
Procedure, shortened: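 Syngeneic 4T1 tumors in immunocompetent Balb/C mice; compounds dosed orally by gavage in 1% HPMC, 120 μmol/kg/day, from day 2 to day 30. Tumor growth by caliper twice weekly plus tumor weight at necropsy; body weight monitored.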

[2] = tested on: Hep3B hepatocellular carcinoma cell line; conditions: for Tumor Weight (g) Mean ± SEM: Hep3B in liver of nude mice, day 35, oral daily, sorafenib 30 mg/kg/day alone, 20 mg/kg/day in combination, AC 180, AK and AB 360 μmol/kg/day; for Body Weight (g) Mean ± SEM Initial: in vivo; for Complete Regressions: number of mice with no viable tumor at necropsy, doses as Table 35
Excerpt: Hepatocellular carcinoma (HCC) is one of the most common and lethal cancers worldwide, generally developing as a consequence of chronic infection with hepatitis B or C viruses. […] The Hep3B hepatocellular carcinoma cell line is human in origin, contains genetic traces of hepatitis B virus, and can be injected into the livers of athymic immunocompromised mice as a model of primary HCC. […] The test compounds were all administered orally.
The test compounds of the invention were suspended in 1% hydroxypropylmethylcellulose (HPMC) using a sonicator equipped with a microtip to minimize particle size and maximize uniformity of the suspension. Sorafenib was dissolved in a 1:1 mixture of Cremophor EL and ethanol by heating to 60° C. for 1 minute and then sonicating for 10 minutes to fully suspend. Female nude mice (Hsd:athymic nude-Foxn1^nu) weighing approximately 25 g were anesthetized with ketamine/xylazine, laid on their backs, and a 1-cm transverse incision made through the skin and peritoneum of the left upper abdomen. The mediant lobe of the liver was exposed by applying gentle pressure on the abdomen. 1.5-2×10^6 Hep3B cells in a 20 μL volume of matrigel:EMEM serum free (1:1) were slowly implanted by subserosal injection into the liver using a 27-gauge needle on a Hamilton syringe. The liver was allowed to slip back into place, and the peritoneum was closed with sutures and wound clips.
Mice were divided into 8 groups of mice each following injection of cells; the vehicle/vehicle group comprised 12 mice and the other groups comprised 8 or 9. Mice began receiving oral test drug treatments 48 hr post cell injection.
The test compounds, sorafenib, and vehicles were administered by oral gavage. Sorafenib or its cremophor-containing vehicle were given in the morning and compounds of the invention or their HPMC vehicle was administered in the afternoon each day; all animals received two gavage treatments of drugs or appropriate vehicles daily.

[3] = tested on: TPA induced chronic skin inflammation; assay: Example E: TPA induced chronic skin inflammation mouse model, ear thickness; format: in vivo
Excerpt: Objective: To evaluate the anti-inflammatory properties of compounds of the invention in a 12-O-tetradecanoylphorbol-13-acetate (TPA) induced chronic skin inflammation mouse model.
Topically applied phorbol esters such as TPA induce skin inflammation involving edema, macrophage and T cell infiltration and epidermal hyperplasia (Alford et al., 1992), and this system has been used as an animal model for dermatitis, mimicking aspects of human inflammatory skin disorders. TPA is also known as a tumor promoter, so that agents which inhibit hyperproliferative or angiogenic actions of TPA may inhibit tumor promotion.
Drug formulations: Compound AC was dissolved in isopropyl myristate:propylene glycol (1:1)+0.9% DMSO at the indicated concentrations. TPA was dissolved in acetone:water (99:1). Dexamethasone (0.06%) was dissolved in normal saline.
Mice: HSD-ICR(CD-1R) female mice at 8-10 weeks of age were used in this experiment.
Experimental Design: Mice were placed into six groups of 10 mice each. 20 μL of 0.01% TPA was administered to each ear on days 0, 2, 4, 7, 9, 11, 13, 15, 18, 20, and 22. 20 μL of AC at various concentrations or 20 μL of dexamethasone solution was applied to the ears daily beginning on day 7, after inflammatory changes in ear thickness were established. Ear thickness was measured with calipers every three days.

[4] = tested on: Vit-D3 activated THP-1 cells; assay: Example B: viable cell count, AC vs chloroquine, +/- LPS; format: cell-based, Human; conditions: LPS-stimulated and basal THP-1 cells, 5 hours
Description: • 1. Vit-D3 activated THP-1 cells (0.5×10^6 cells in 2 ml) were transferred to the wells of a 24-well dish • 2. Compound AC was added at a concentration of 0.5 μM, 1.0 μM or 5.0 μM • 3. […] LPS from E. coli 0111:B4 (1 ng/ml final concentration) was added to some wells • 5. After 5 hours viable cell count, Acridine Orange (A.O.) uptake and JC-1 mitochondrial loading were determined by fluorescence-activated cell sorting (FACS)
THP-1 cells (p39) treated with 0.1 μM vit-D3 (100 μM) in DMSO] for 3 days were counted, spun down, resuspended in serum-free RPMI (Lonza 12-115F) and transferred to the wells of two 24-well dishes (0.5×10^6 cells in 2 ml). […] Crude-LPS from E. coli 0111:B4 was added to some wells (1 ng/ml final conc) and the plates placed in a 37 C incubator. 1 μl of Baf A1 (50 nM final conc) was added to one well (no LPS) at T=4 hours to serve as a compensation control for Acridine Orange loading. After 5 hours, 500 μl aliquots of cells were transferred to FACS tubes and viable cell counts, A.O. loading and JC-1 accumulation determined by FACS.
The tubes were washed twice in DPBS, resuspended in 500 μl DPBS and acquired on the FACSCalibur.

[5] = tested on: Vit-D3 activated THP-1 cells; assay: Example B: Acridine Orange (A.O.) uptake, lysosomal acidification and integrity; format: cell-based, Human; conditions: 5 hours
Description: In this experiment, cell viability was monitored and uptake and accumulation of acridine orange, a lysosomotropic fluorescent dye, was used to assess lysosomal acidification and integrity. JC-1 dye was used to measure effects of test compounds on mitochondrial membrane potential (MMP); reduction of MMP is a feature of apoptotic cell death. • 1. […] The tubes were washed twice in DPBS, resuspended in 500 μl DPBS and acquired on the FACSCalibur.

SMILES	Final Tumor Volume [1] [mm^3]	Δ BW % [1] [%]	Final Body Weight [1]	Initial Body Weight [1] [g]	Tumor Weight (g) Mean ± SEM [2]	Body Weight (g) Mean ± SEM Initial [2] [g]	Complete Regressions ([2]; day 35)	reduction of tumor size versus vehicle ([2]; single agents, oral, day 35, sorafenib 30 mg/kg/day)	Ear thickness (mm) ([3]; day 22, 0.0125 mg/ear daily topical from day 7, TPA-treated mice)	Ear thickness (mm) ([3]; day 22, 0.025 mg/ear daily topical from day 7, TPA-treated mice)	Ear thickness (mm) ([3]; day 22, 0.05 mg/ear daily topical from day 7, TPA-treated mice)	Ear thickness (mm) ([3]; day 22, 0.075 mg/ear daily topical from day 7, TPA-treated mice)	Histology of TPA-treated ears, in words ([3]; topical AC)	potency of AC relative to chloroquine for inactivating macrophages (THP-1 cells) [4]	A.O. FL-3 fluorescence (MFI) percent change from DMSO no LPS, Mean ± SE ([5]; 0.1 μM AC, 1 ng/ml LPS) [%]	A.O. FL-3 fluorescence (MFI) percent change from DMSO no LPS, Mean ± SE ([5]; 0.1 μM AC, No LPS) [%]	A.O. FL-3 fluorescence (MFI) percent change from DMSO no LPS, Mean ± SE ([5]; 0.5 μM AC, 1 ng/ml LPS) [%]	A.O. FL-3 fluorescence (MFI) percent change from DMSO no LPS, Mean ± SE ([5]; 0.5 μM AC, No LPS) [%]	A.O. FL-3 fluorescence (MFI) percent change from DMSO no LPS, Mean ± SE ([5]; 1.0 μM AC, 1 ng/ml LPS) [%]	A.O. FL-3 fluorescence (MFI) percent change from DMSO no LPS, Mean ± SE ([5]; 1.0 μM AC, No LPS) [%]
CCCCCCOc1ccc(CNc2ccnc3ccccc23)cc1 [AA, N-[4-(Hexyloxy)benzyl]quinolin-4-amine]	563 ± 175	−5.1	20.3 ± 1.3	21.4 ± 1.0	–	–	–	–	–	–	–	–	–	–	–	–	–	–	–	–
CCCCCCOc1cccc(CNc2ncnc3ccccc23)c1 [AK, N-[3-(Hexyloxy)benzyl]quinazolin-4-amine]	–	–	–	–	1.56 ± 0.39^ g	25.9 ± 0.7	2	numerically but not statistically significant reduction in tumor size versus vehicle	–	–	–	–	–	–	–	–	–	–	–	–
CCCCCCOc1cccc(CNc2ccnc3ccccc23)c1 [Compound AC, N-[3-(Hexyloxy)benzyl]quinolin-4-amine]	723 ± 185	−8.4	19.7 ± 1.1	21.5 ± 1.0	0.49 ± 0.17 g	25.4 ± 0.5	2	–	0.362 ± 0.0394	0.390 ± 0.0319	0.391 ± 0.0334	0.395 ± 0.0438	both TPA-induced edema and epidermal hyperplasia were reduced by AC, as was angiogenesis	approximately 100 fold	−54.72 ± 2.74	−27.64 ± 9.68	−68.24 ± 2.39	−54.59 ± 4.05	−81.11 ± 2.65	−69.52 ± 2.05
